The record followed here is PMC8187626, “Clostridioides difficile specific DNA adenine methyltransferase CamA squeezes and flips adenine out of DNA helix” (Nature Communications, 2021).

For data set [1], the target named is T1, CamA (Clostridioides difficile, UniProt Q183J3).
T1 construct: gene CD630_27580; full length, 577 residues; N-terminal His-SUMO tag cut by ULP protease leaving His-Met; E. coli Rosetta, plasmid pXC2184; active as monomer
Nature of the data set: isothermal titration calorimetry, one-site fit. It counts as binding. In general terms: Isothermal titration calorimetry measures the heat released or taken up as one component is titrated into another.

In data set [2] the target is T1, CamA. Nature of the data set: MTase-Glo luminescence assay of SAH formation. It counts as biochemical. To be noted: 20 µM dsDNA substrate (CAAAAA site), 50 nM CamA, 100 mM NaCl, 20 mM Tris-HCl pH 7.5, ~22 °C, 2.5 min.
Data set [3] concerns the target T2, CamA (Clostridioides difficile 630, UniProt Q183J3 1-577).
T2 sequence: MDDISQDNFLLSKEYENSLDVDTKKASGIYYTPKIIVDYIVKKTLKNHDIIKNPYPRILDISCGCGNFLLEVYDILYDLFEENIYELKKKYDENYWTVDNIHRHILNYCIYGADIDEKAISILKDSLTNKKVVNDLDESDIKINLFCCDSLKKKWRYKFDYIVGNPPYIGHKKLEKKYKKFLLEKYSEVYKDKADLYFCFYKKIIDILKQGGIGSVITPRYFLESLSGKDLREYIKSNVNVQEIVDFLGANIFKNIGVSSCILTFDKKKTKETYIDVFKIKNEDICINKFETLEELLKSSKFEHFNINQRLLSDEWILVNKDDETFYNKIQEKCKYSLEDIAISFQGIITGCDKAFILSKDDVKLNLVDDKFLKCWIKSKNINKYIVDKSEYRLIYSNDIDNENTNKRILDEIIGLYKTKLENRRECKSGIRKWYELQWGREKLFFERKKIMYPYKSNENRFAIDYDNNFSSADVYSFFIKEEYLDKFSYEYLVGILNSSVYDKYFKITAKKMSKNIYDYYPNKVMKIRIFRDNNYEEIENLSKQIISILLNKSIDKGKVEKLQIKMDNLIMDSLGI
As to the kind of experiment: X-ray crystallography; no cofactor bound (SAH dissociated); 2.68 A; ITC at 25 C: 200 uM DNA into 18-20 uM CamA, 20 mM HEPES pH 8.0, 0.5 mM TCEP, 5% glycerol, 150 or 250 mM NaCl (cofactor comparison at 250 mM NaCl). Conditions: protein: recombinant; tags: His-SUMO cleaved, leaves N-terminal His-Met; 5' overhang 1 nt at each end (T / A).

The target in data set [4] is T3, CamA SeMet (Clostridioides difficile 630, UniProt Q183J3 1-577).
T3 sequence: T2 sequence
As to the kind of experiment: X-ray crystallography; no cofactor; ITC at 25 C: 200 uM DNA into 18-20 uM CamA, 20 mM HEPES pH 8.0, 0.5 mM TCEP, 5% glycerol, 150 or 250 mM NaCl (cofactor comparison at 250 mM NaCl). Conditions: protein: recombinant; tags: His-SUMO cleaved, leaves N-terminal His-Met; 5' overhang 1 nt at each end (T / A).

One may read the Kd as the equilibrium constant for the complex coming apart. One may read the Km as the substrate concentration at which the rate is half of its maximum. For `C[S+](CC[C@H](N)C(=O)O)C[C@H]1O[C@@H](n2cnc3c(N)ncnc32)[C@H](O)[C@@H]1O` (stereo partly drawn) [SAM], the Kd in data set [1] was 23 to 35 µM. Further, the Michaelis-Menten constant (Km) in data set [2] was more than 17 µM.
`Nc1ncnc2c1ncn2[C@@H]1O[C@H](CSCC[C@H](N)C(=O)O)[C@@H](O)[C@H]1O` [SAH] yielded a Kd in data set [1] of 8 µM.
Consider `Nc1ncnc2c1ncn2[C@@H]1O[C@H](C[C@@H](N)CC[C@H](N)C(=O)O)[C@@H](O)[C@H]1O` [sinefungin], for which binding in data set [1] was characterised by a dissociation constant (Kd) of 19 µM. This Kd lies about 2.4-fold higher than the previous one.

B1: co-crystal DNA 13 bp + overhangs (dsDNA)
DNA 1: TTCAAAAAGTCCCA
DNA 2: ATGGGACTTTTTGA
In the case of B1, the binding result in data set [3] and in data set [4] was “binds” in each case.
